In experiment [1] the test system is Phospholipase A2 (Naja naja venom, Sigma). Briefly: Inhibition of Phospholipase A2 Activity (Method A). Format: biochemical. The note with it: inhibition of arachidonic acid release, tested in triplicate. Here is the method: Inhibition of Phospholipase A2 Activity
Enzyme: Phospholipase A2 (Naja naja venom, Sigma)
Substrate: Diarachidoyl phosphatidylcholine (10.6mg) and α-1-palmitoyl-2-[1-^14C]-arachidonyl phosphatidylcholine (0.5uCi; 52.9mCi/mMol) in 28ml of TrisHCl buffer=100mM, pH 8.7) ultrasonicated.
Assay: Incubations containing PLA2 (0.125ng) in Tris HC1 buffer (lOOmM, pH 8.7) and CaCl2 (4mM) were prepared on ice. Immediately prior to incubation at 37°C 5µl of DMSO or compound in DMSO were added. The final assay volume was 1.75ml. After 10 minutes at 37 °C 750µl of substrate was added, with mixing, and the incubation continued for a further 15 min. The reaction was terminated by placing on ice and adding 5ml CHCl3:MeOH (2:lv/v).
The lower organic phase was removed and stored under N2 at-20 °C until analysed. Analysis was by 1-dimensional t.l.c. on polygram Sil G sheets in the solvent system petroleum ether: diethyl ether: acetic acid (60:40:1,v/v). In this system the phospholipid remains at the origin and the arachidonic acid has an approximate Rf. value of 0.36. The areas of interest were cut from the plates and radioactivity determined by liquid scintillation counting.
All compounds were tested in triplicate.
Calculation: The radioactivity of the arachidonic acid is expressed as a percentage of the total dpm cut from the plate. The percentage inhibition of arachidonic acid release compared to that of the control was calculated after correction for the level of spontaneous release where: • x = % corrected mean arachidonic acid release in control • y = % corrected arachidionic acid release after inhibition • % inhibition [formula]
The mean of the triplicate samples was calculated giving z + standard deviation%.

In experiment [2] the target is T1, 5-Lipoxygenase enzyme (10,000 g supernatant from RBL-1 cells) (Rattus norvegicus, UniProt P12527).
T1 construct: 5-Lipoxygenase enzyme was prepared as a 10,000 g supernatant from RBL-1 cells; endogenous in cells; host or cells: RBL-1 cells (10,000 g supernatant, method of Jakschik)
T1 sequence (P12527 1-673): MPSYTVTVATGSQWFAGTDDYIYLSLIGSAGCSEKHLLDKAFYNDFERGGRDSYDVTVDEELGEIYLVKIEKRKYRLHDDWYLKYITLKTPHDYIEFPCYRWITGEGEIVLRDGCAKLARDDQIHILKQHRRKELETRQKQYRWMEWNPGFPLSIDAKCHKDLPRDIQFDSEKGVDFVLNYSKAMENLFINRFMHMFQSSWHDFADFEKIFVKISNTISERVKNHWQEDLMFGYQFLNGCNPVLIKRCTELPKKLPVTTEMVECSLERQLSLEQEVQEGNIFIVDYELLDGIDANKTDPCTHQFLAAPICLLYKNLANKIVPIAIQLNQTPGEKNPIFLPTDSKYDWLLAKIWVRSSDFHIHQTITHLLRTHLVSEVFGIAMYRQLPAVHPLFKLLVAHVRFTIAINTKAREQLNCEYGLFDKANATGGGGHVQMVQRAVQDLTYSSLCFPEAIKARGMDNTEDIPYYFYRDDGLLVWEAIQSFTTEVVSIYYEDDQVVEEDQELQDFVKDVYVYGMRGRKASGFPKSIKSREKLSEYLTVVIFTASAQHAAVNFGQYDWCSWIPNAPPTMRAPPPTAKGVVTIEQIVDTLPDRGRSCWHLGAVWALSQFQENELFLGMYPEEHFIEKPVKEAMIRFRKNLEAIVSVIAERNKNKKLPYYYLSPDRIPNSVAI
In words: Inhibition of 5-Lipoxygenase Activity (Method B). The experiment is classed as biochemical. As to conditions: decrease in formation of 5-HETE and 5,12-diHETE relative to control. Here is the method:
Inhibition of 5-Lipoxygenase Activity
5-Lipoxygenase enzyme was prepared as a 10,000 g supernatant from RBL-1 cells by the method of Jakschik [Jakschik, B.A., F.F. Sun, L.M. Lee, and M.M.Steinhoff, 1980, Biochem. Biophys. Res. Comm. 95, 103]. The 10,000 g supernatant was diluted with homogenization buffer to the equivalent of 1.5 - 2.5 x 10^7 cells. ml-^1 and made 2mM with respect to CaCl2. Aliquots of 0.5 ml were then dispensed into tubes, and incubated at 29 °C with 5 µl ethanol or compound in ethanol at the desired concentration for 2 min. Then [1-^14C] arachidonic acid was added in buffer to give a final concentration of 6.3 uM and 0.2 µCi per incubation, and the reaction continued at 29 °C for 2 min. The reaction was terminated by adding 1 ml of acetone and cooling on ice, 0.5 ml of ice-cold saline and 10 µl of 2N formic acid were added, and the mixture was extracted with 2 x 2 ml of chloroform. The extract was stored under N2at -20°C until analysis by chromatography. Activity was measured as the percentage of total radioactivity found in 5-HETE and 5,12-diHETE, and inhibition calculated as the decrease in formation of the sum of these two species in compound-treated incubates relative to control incubates.

`COC(=O)c1sccc1NC(=O)C=Cc1ccc(OC)c(OC)c1` [Example 6, Methyl-3[N-(3,4-dimethoxycinnamoyl)amino]thiophene-2-carboxylate]: the “Phospholipase A2 Inhibition at 20µM (%)” value in experiment [1] is recorded as 31%. The compound further registered an inhibition at 20 µM in experiment [2] of 81%.
The matching figures for `COC(=O)c1sccc1NC(=O)C=Cc1ccc(O)c(O)c1` [Example 7]: 84% and 93%.
Turning to `COC(=O)c1sccc1NC(=O)C=Cc1ccc(O)c(OC)c1` [Example 8], in experiment [1], the “Phospholipase A2 Inhibition at 20µM (%)” value is listed as 26%. In experiment [2], this compound displayed an inhibition at 20 µM of 98%.
The like results for `CCOC(=O)c1c[nH]nc1NC(=O)C=Cc1ccc(O)c(O)c1` [Example 9, Ethyl 3-[N-(3,4-dihydroxycinnamol)amino]pyrazole-4-carboxylate] were, in that order, 71% and 97%.
The matching figures for `CCOC(=O)c1cccnc1NC(=O)C=Cc1ccc(O)c(O)c1` [Example 10, Ethyl-2 [N-(3,4-dihydroxycinnamoyl)amino]pyridine-3-carboxylate]: 10% and 95%.
As for `CCOC(=O)c1c(NC(=O)C=Cc2ccc(O)c(O)c2)sc2c1CCCC2` [Example 11, Ethyl-2[N-3,4-dihydroxycinnamoyl)amino]4,5,6,7-tetrahydrobenzo [bj thiophene-3-carboxylate], the “Phospholipase A2 Inhibition at 20µM (%)” value in experiment [1] is given as 92%. The compound also returned an inhibition at 20 µM in experiment [2] of 91%.
The like results for `O=C(C=Cc1ccc(O)c(O)c1)Nc1ccsc1C(=O)O` [Example 12] were, in that order, 36% and 88%.
The like results for `COc1cc(C=CC(=O)Nc2ccsc2C(=O)O)ccc1O` [Example 13, 3-[N-(4-hydroxy-3-methoxycinnamoyl)-amino]thiophene-2-carboxylic acid.] were, in that order, 26% and 64%.
In experiment [2], `O=C(C=Cc1ccc(O)c(O)c1)Nc1ncccc1C(=O)O` [Example 14, 2-[N-(3,4-dihydroxycinnamoyl)amino]pyridine 3-carboxylic acid] showed an inhibition at 20 µM of 67%.
In the case of `COc1ccc(C=CC(=O)Nc2ccsc2C(=O)O)cc1OC` [Example 15, 3-[N-(3,4-Dimethoxycinnamoyl)amino]thiophene-2-carboxylic acid], the “Phospholipase A2 Inhibition at 20µM (%)” value in experiment [1] is given as 10%. In experiment [2], 20 µM produced 0% inhibition.
As for `COC(=O)c1sc(-c2ccc(Cl)cc2)cc1NC(=O)C=Cc1ccc(OC(C)=O)c(OC(C)=O)c1` [Example 16, Methyl-5-(4-chlorophenyl)-3-(3,4-diacetoxycinnamoyl-amino)-thiophene-2-carboxylate], the inhibition at 20 µM in experiment [2] was determined as 60%.

As a reminder, the inhibition is the share of the control response that was lost under treatment. A low value points to little suppression.
